The results in this text go back to ChEMBL document CHEMBL5625247, “Tetrahydro-β-carboline derivatives as potent histone deacetylase 6 inhibitors with broad-spectrum antiproliferative activity” (Eur J Med Chem, 2023).

Activity calls are given as the source filed them. The calls are words filed in the database; no cut-off is given here. Some results are limits rather than exact numbers.

One data set deals with Histone deacetylase 11 (Homo sapiens, UniProt Q96DB2). The data set is described as follows: Inhibition of HDAC11 (unknown origin) expressed in baculovirus infected in Sf9 cells using RHKKAc as substrate preincubated for 5 to 10 mins followed by substrate addition measured after 2 hrs by fluorescence based assay.
Sequence of Histone deacetylase 11 (Q96DB2 whole entry): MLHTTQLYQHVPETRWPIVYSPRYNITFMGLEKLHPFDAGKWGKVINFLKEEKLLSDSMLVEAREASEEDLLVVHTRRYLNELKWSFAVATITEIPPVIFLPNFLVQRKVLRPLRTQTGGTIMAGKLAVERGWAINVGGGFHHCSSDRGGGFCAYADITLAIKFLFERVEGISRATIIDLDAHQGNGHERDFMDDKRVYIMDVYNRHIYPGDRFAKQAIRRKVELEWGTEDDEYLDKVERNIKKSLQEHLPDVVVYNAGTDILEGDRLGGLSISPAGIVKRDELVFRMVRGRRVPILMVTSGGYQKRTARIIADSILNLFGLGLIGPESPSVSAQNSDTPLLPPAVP
For data set [1], the target named is T1, Protein deacetylase HDAC6 (Homo sapiens, UniProt Q9UBN7).
T1 sequence (Q9UBN7 whole entry): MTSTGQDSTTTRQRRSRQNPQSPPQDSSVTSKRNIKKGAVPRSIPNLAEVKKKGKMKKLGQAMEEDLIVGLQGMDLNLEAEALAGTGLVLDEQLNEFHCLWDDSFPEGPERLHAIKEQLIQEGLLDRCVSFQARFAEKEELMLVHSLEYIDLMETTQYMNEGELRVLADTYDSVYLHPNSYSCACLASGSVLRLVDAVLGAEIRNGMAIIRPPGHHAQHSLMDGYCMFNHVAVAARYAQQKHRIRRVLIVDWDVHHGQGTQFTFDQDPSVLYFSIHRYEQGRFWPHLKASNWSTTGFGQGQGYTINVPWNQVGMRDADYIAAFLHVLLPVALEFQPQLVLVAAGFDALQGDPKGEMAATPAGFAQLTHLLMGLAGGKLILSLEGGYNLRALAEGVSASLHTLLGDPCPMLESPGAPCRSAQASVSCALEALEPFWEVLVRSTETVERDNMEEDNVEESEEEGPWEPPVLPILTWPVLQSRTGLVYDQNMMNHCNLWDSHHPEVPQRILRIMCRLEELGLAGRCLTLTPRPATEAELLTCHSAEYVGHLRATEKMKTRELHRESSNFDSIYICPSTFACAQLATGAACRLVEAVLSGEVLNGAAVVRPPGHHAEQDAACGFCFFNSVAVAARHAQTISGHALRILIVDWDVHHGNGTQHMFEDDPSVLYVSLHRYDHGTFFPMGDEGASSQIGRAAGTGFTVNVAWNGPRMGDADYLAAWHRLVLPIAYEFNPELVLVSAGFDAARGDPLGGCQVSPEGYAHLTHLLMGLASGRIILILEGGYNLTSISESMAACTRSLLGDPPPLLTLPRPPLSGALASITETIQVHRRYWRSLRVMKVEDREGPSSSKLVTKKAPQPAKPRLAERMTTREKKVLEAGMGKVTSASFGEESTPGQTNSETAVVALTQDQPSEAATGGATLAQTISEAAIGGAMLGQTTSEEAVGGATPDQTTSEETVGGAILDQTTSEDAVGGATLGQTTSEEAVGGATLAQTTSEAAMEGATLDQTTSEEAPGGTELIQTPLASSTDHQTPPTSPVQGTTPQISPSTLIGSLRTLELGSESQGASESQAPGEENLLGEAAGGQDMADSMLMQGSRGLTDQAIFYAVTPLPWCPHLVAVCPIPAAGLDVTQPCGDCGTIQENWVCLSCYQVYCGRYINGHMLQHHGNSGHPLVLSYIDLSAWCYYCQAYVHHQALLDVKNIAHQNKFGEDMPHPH
As to the kind of experiment: Inhibition of HDAC6 (unknown origin) expressed in baculovirus infected in Sf9 cells using RHKKAc as substrate preincubated for 5 to 10 mins followed by substrate addition measured after 2 hrs by fluorescence based assay.

In a further data set the target is Histone deacetylase 2 (Homo sapiens, UniProt Q92769). The format is cell-based, Sf9.
Sequence of Histone deacetylase 2 (Q92769 whole entry): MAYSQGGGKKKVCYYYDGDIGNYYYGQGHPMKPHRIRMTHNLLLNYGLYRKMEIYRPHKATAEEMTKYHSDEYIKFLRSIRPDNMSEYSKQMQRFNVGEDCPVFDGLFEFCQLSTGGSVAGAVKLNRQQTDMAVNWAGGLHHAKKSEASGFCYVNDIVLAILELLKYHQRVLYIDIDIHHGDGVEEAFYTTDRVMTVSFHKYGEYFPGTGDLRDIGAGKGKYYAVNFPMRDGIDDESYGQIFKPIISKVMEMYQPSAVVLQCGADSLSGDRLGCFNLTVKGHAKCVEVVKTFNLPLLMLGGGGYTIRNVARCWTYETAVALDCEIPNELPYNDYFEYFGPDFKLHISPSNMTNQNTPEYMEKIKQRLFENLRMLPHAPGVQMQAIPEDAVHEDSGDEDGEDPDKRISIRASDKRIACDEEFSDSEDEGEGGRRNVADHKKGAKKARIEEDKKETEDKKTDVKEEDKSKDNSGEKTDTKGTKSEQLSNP
In a further data set the target is Histone deacetylase 3 (Homo sapiens, UniProt O15379). The data set is described as follows: Inhibition of HDAC3 (unknown origin) expressed in baculovirus infected in Sf9 cells using RHKKAc as substrate preincubated for 5 to 10 mins followed by substrate addition measured after 2 hrs by fluorescence based assay.
Sequence of Histone deacetylase 3 (O15379 whole entry): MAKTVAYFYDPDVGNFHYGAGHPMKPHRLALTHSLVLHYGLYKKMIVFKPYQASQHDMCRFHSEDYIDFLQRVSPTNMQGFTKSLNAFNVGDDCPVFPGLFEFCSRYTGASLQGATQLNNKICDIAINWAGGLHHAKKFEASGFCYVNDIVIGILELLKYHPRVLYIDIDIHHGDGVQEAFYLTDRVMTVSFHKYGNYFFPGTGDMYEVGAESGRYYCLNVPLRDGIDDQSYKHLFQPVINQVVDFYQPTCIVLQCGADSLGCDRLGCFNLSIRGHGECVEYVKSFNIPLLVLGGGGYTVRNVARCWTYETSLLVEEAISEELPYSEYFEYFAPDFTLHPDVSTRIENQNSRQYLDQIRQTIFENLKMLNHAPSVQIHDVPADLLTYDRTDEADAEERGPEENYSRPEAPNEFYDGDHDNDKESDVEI
A further data set concerns the target Histone deacetylase 8 (Homo sapiens, UniProt Q9BY41). As to the kind of experiment: Inhibition of HDAC8 (unknown origin) expressed in baculovirus infected in Sf9 cells using RHKKAc as substrate preincubated for 5 to 10 mins followed by substrate addition measured after 2 hrs by fluorescence based assay.
Another data set concerns the target Histone deacetylase 9 (Homo sapiens, UniProt Q9UKV0). The data set is described as follows: Inhibition of HDAC9 (unknown origin) expressed in baculovirus infected in Sf9 cells using RHKKAc as substrate preincubated for 5 to 10 mins followed by substrate addition measured after 2 hrs by fluorescence based assay.
The target in data set [2] is T2, Class 1 histone deacetylase (Homo sapiens) (UniProt Q13547+O15379+Q92769+Q9BY41). As to the kind of experiment: Inhibition of class 1 HDAC in human RPMI-8226 cells assessed as increase in alpha-tubulin acetylation at 1 to 10 uM incubated for 24 hrs by Western blot analysis. The format is cell-based. Particulars: dose 1-10 µM.
T2 sequence (O15379 whole entry, looked up): as the sequence (O15379 whole entry) above
T2 sequence (Q13547 whole entry, looked up): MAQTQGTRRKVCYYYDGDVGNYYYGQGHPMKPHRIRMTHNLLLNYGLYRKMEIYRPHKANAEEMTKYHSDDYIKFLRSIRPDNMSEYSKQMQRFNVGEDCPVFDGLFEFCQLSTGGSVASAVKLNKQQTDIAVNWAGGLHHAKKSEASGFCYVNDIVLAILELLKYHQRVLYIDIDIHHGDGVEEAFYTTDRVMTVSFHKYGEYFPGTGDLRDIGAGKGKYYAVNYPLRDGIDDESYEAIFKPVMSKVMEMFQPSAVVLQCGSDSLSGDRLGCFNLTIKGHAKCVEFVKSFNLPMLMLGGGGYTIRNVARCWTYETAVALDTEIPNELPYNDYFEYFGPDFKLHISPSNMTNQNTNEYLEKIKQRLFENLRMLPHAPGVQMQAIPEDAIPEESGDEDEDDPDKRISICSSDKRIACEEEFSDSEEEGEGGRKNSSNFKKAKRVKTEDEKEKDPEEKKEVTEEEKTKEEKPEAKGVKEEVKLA
T2 sequence (Q92769 whole entry, looked up): as the sequence (Q92769 whole entry) above
T2 sequence (Q9BY41 whole entry, looked up): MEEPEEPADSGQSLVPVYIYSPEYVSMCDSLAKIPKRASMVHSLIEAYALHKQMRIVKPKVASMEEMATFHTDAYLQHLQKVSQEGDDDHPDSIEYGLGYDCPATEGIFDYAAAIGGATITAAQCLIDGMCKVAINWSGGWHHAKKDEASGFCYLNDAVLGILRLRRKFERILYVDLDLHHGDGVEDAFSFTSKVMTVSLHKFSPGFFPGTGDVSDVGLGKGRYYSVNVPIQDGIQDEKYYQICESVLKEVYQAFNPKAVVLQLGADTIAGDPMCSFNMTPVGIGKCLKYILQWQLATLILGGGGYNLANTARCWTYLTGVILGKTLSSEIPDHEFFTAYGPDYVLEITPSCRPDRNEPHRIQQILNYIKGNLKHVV
For data set [3], the target named is T2, Class 1 histone deacetylase (Homo sapiens). As to the kind of experiment: Inhibition of class 1 HDAC in human RPMI-8226 cells assessed as increase in histone H3 acetylation at 1 to 10 uM incubated for 24 hrs by Western blot analysis. The format is cell-based. The following applies: dose 1-10 µM.
A short description of data set [4]: Cmax in Sprague-Dawley rat at 0.2 mg/kg, iv by LC-MS/MS analysis. The format is ADME, organism-based. The following applies: in vivo.
Data set [5] is described as follows: Volume of distribution at steady state in Sprague-Dawley rat at 0.2 mg/kg, iv by LC-MS/MS analysis. The following applies: in vivo, read-out: Vdss. The format is ADME, organism-based.
A short description of data set [6]: Cmax in Sprague-Dawley rat at 3 mg/kg, po by LC-MS/MS analysis. The format is ADME, organism-based. Particulars: in vivo.
A short description of data set [7]: Tmax in Sprague-Dawley rat at 3 mg/kg, po by LC-MS/MS analysis. The format is ADME, organism-based. Particulars: in vivo.
Data set [8] can be described thus: AUC (0 to last) in Sprague-Dawley rat at 3 mg/kg, po by LC-MS/MS analysis. The format is ADME, organism-based. Particulars: in vivo.
Data set [9] in a line: Oral bioavailability in Sprague-Dawley rat at 3 mg/kg by LC-MS/MS analysis. The format is ADME, organism-based. The following applies: in vivo.

Sequence of Histone deacetylase 9 (Q9UKV0 whole entry): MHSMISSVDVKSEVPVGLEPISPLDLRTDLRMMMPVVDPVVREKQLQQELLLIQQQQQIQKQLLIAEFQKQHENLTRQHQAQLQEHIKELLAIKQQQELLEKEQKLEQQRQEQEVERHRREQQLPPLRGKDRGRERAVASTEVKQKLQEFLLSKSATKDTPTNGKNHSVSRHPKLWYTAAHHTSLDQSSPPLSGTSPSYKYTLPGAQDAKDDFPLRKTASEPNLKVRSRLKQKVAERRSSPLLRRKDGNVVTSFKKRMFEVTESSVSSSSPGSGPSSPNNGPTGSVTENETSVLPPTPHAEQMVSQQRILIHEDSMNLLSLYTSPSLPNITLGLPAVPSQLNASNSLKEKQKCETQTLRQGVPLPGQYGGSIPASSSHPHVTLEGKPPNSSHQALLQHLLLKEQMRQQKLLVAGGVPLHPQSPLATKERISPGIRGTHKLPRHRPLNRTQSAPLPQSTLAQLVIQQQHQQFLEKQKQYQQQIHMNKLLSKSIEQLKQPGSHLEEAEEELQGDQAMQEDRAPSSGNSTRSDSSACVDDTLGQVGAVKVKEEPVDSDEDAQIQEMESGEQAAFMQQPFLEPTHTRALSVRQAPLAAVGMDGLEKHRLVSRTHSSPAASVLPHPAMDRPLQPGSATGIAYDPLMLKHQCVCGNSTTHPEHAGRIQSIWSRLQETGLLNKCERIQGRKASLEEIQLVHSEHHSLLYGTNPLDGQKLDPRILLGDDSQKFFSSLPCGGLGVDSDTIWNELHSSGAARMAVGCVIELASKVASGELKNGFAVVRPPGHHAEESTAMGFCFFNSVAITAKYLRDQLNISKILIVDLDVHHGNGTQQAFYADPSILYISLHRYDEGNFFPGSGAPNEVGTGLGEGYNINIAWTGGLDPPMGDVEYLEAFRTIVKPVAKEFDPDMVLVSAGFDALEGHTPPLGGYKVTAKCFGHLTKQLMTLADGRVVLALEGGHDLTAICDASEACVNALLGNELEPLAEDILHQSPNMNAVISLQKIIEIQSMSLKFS
Sequence of Histone deacetylase 8 (Q9BY41 whole entry): as the sequence (Q9BY41 whole entry, looked up) above

For the molecule `O=C(NO)c1ccc(CNC(=O)[C@H]2Cc3c([nH]c4ccccc34)[C@H](c3ccc(Cl)cc3)N2)cc1`, the IC50 against Histone deacetylase 11 was 2100 nM; in data set [1], 2.68 nM; against Histone deacetylase 2 it was 98.7 nM; at Histone deacetylase 3, 103 nM; at Histone deacetylase 8, 292 nM; against Histone deacetylase 9, greater than 50000 nM. Further, the inhibition result in data set [2] and in data set [3] was “Active” throughout. For the same molecule, the Cmax in data set [4] was found to be 1020 nM; in data set [6], 1390 nM. For the same molecule, the Vd in [5] is 0.81 L/kg. The Tmax in data set [7] is 1.54 h. In [8], this molecule showed an AUC(0-t) of 9.6 µM·h. This molecule also gave a bioavailability in data set [9] of 43.8%.
